Experiment [1] concerns the target T1, Acetylcholinesterase (Rattus norvegicus, UniProt P37136).
T1 sequence (P37136 whole entry): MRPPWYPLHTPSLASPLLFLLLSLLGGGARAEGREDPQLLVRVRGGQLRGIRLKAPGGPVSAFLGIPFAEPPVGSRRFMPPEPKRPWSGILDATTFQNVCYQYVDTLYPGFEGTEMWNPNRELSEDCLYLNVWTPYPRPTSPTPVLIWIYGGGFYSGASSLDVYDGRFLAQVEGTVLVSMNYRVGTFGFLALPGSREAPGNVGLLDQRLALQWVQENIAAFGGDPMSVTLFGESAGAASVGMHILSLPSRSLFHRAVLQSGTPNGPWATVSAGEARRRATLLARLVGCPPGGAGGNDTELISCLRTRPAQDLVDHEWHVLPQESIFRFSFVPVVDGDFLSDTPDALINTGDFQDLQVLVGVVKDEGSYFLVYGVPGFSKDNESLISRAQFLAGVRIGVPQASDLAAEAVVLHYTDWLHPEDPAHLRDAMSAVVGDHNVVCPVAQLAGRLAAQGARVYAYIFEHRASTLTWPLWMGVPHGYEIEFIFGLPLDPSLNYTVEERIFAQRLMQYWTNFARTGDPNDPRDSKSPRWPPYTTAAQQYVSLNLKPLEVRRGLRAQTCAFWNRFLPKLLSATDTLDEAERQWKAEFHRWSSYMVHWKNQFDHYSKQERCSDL
Description: Inhibitory concentration against rat cortex Acetylcholinesterase

Experiment [2] deals with Butyrylcholinesterase (Rattus norvegicus, UniProt Q9JKC1).
Chain of Butyrylcholinesterase (Q9JKC1 whole entry): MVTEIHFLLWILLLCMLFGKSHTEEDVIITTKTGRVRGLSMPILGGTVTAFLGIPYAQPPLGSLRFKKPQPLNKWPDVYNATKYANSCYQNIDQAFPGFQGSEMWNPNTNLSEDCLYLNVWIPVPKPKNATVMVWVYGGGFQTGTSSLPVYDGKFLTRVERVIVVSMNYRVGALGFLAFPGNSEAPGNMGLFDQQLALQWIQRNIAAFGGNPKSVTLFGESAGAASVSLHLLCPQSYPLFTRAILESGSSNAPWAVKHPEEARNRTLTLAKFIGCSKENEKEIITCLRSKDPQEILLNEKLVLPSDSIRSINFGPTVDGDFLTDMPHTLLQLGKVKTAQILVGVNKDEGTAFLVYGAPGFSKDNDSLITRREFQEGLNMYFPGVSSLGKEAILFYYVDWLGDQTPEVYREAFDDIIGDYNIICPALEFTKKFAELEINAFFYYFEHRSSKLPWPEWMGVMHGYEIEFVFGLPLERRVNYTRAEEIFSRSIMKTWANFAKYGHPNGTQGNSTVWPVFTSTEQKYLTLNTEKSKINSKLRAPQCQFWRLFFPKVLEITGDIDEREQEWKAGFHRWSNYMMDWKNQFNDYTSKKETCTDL
Description: Inhibitory concentration against rat serum Butyrylcholinesterase

Molecules are shown by their SMILES.

The term IC50 denotes the concentration that gives 50% inhibition. Read a high IC50 as lower potency. As for `COc1ccc(C(=O)NCC(=O)NCCC2CCN(Cc3ccccc3)CC2)cc1OC`, the IC50 in experiment [1] was 662 nM; in experiment [2] it was 19200 nM. For `O=C(CNc1c2c(nc3ccccc13)CCCC2)NCC1CCN(c2ccccc2)CC1`, the midpoint of inhibition in experiment [2], the IC50, lay at 12.4 nM. On the same count and under the same terms, the same measure for `O=C(CNC1c2ccccc2-c2[nH]c3ccccc3c21)NCCC1CCN(Cc2ccccc2)CC1` (stereo not drawn): 17800 nM. For the molecule `O=C(CNC1CCc2ccccc21)NCCC1CCN(Cc2ccccc2)CC1` (stereo not drawn), the IC50 in experiment [1] turned out to be 230 nM; in experiment [2], 6920 nM. As for `O=C(CNc1c2c(nc3ccccc13)CCCC2)NCCC1CCN(c2ccccc2)CC1`, the values for the IC50 in experiment [1] and in experiment [2] were 6 nM and 76 nM, respectively.
